According to BigSolDB 2.1:

SMILES: COCCOC(=O)C1=C(C)NC(C)=C(C(=O)OC(C)C)C1c1cccc([N+](=O)[O-])c1 (centres undefined)
- solubility (mole fraction) (in THF, 278.15 K): 0.0141
- solubility (mole fraction) (in THF, 283.15 K): 0.016
- solubility (mole fraction) (in THF, 288.15 K): 0.0181
- solubility (mole fraction) (in THF, 293.15 K): 0.0203
- solubility (mole fraction) (in THF, 298.15 K): 0.0229
- solubility (mole fraction) (in THF, 303.15 K): 0.0259
- solubility (mole fraction) (in THF, 308.15 K): 0.0291
- solubility (mole fraction) (in THF, 313.15 K): 0.0324
- solubility (mole fraction) (in THF, 318.15 K): 0.0366
- solubility (mole fraction) (in acetone, 278.15 K): 0.012
- solubility (mole fraction) (in acetone, 283.15 K): 0.0136
- solubility (mole fraction) (in acetone, 288.15 K): 0.0154
- solubility (mole fraction) (in acetone, 293.15 K): 0.0171
- solubility (mole fraction) (in acetone, 298.15 K): 0.0193
- solubility (mole fraction) (in acetone, 303.15 K): 0.0217
- solubility (mole fraction) (in acetone, 308.15 K): 0.0241
- solubility (mole fraction) (in acetone, 313.15 K): 0.027
- solubility (mole fraction) (in acetone, 318.15 K): 0.0295
- solubility (mole fraction) (in acetonitrile, 278.15 K): 0.00161
- solubility (mole fraction) (in acetonitrile, 283.15 K): 0.00191
- solubility (mole fraction) (in acetonitrile, 288.15 K): 0.00225
- solubility (mole fraction) (in acetonitrile, 293.15 K): 0.00267
- solubility (mole fraction) (in acetonitrile, 298.15 K): 0.00311
- solubility (mole fraction) (in acetonitrile, 303.15 K): 0.00365
- solubility (mole fraction) (in acetonitrile, 308.15 K): 0.00437
- solubility (mole fraction) (in acetonitrile, 313.15 K): 0.00503
- solubility (mole fraction) (in acetonitrile, 318.15 K): 0.00587
- solubility (mole fraction) (in cyclohexanone, 278.15 K): 0.0145
- solubility (mole fraction) (in cyclohexanone, 283.15 K): 0.0164
- solubility (mole fraction) (in cyclohexanone, 288.15 K): 0.0184
- solubility (mole fraction) (in cyclohexanone, 293.15 K): 0.021
- solubility (mole fraction) (in cyclohexanone, 298.15 K): 0.0239
- solubility (mole fraction) (in cyclohexanone, 303.15 K): 0.0266
- solubility (mole fraction) (in cyclohexanone, 308.15 K): 0.0297
- solubility (mole fraction) (in cyclohexanone, 313.15 K): 0.0334
- solubility (mole fraction) (in cyclohexanone, 318.15 K): 0.0375
- solubility (mole fraction) (in ethanol, 278.15 K): 0.014
- solubility (mole fraction) (in ethanol, 283.15 K): 0.0158
- solubility (mole fraction) (in ethanol, 288.15 K): 0.0176
- solubility (mole fraction) (in ethanol, 293.15 K): 0.0198
- solubility (mole fraction) (in ethanol, 298.15 K): 0.0221
- solubility (mole fraction) (in ethanol, 303.15 K): 0.0247
- solubility (mole fraction) (in ethanol, 308.15 K): 0.0272
- solubility (mole fraction) (in ethanol, 313.15 K): 0.0303
- solubility (mole fraction) (in ethanol, 318.15 K): 0.034
- solubility (mole fraction) (in ethyl acetate, 278.15 K): 0.00127
- solubility (mole fraction) (in ethyl acetate, 283.15 K): 0.00145
- solubility (mole fraction) (in ethyl acetate, 288.15 K): 0.0017
- solubility (mole fraction) (in ethyl acetate, 293.15 K): 0.00192
- solubility (mole fraction) (in ethyl acetate, 298.15 K): 0.00221
- solubility (mole fraction) (in ethyl acetate, 303.15 K): 0.00248
- solubility (mole fraction) (in ethyl acetate, 308.15 K): 0.0028
- solubility (mole fraction) (in ethyl acetate, 313.15 K): 0.0032
- solubility (mole fraction) (in ethyl acetate, 318.15 K): 0.00364
- solubility (mole fraction) (in ethyl formate, 278.15 K): 0.00152
- solubility (mole fraction) (in ethyl formate, 283.15 K): 0.0017
- solubility (mole fraction) (in ethyl formate, 288.15 K): 0.00192
- solubility (mole fraction) (in ethyl formate, 293.15 K): 0.00218
- solubility (mole fraction) (in ethyl formate, 298.15 K): 0.00247
- solubility (mole fraction) (in ethyl formate, 303.15 K): 0.00275
- solubility (mole fraction) (in ethyl formate, 308.15 K): 0.00305
- solubility (mole fraction) (in ethyl formate, 313.15 K): 0.00341
- solubility (mole fraction) (in ethyl formate, 318.15 K): 0.00381
- solubility (mole fraction) (in isobutanol, 278.15 K): 0.00706
- solubility (mole fraction) (in isobutanol, 283.15 K): 0.00811
- solubility (mole fraction) (in isobutanol, 288.15 K): 0.00923
- solubility (mole fraction) (in isobutanol, 293.15 K): 0.0107
- solubility (mole fraction) (in isobutanol, 298.15 K): 0.0122
- solubility (mole fraction) (in isobutanol, 303.15 K): 0.0137
- solubility (mole fraction) (in isobutanol, 308.15 K): 0.0156
- solubility (mole fraction) (in isobutanol, 313.15 K): 0.0179
- solubility (mole fraction) (in isobutanol, 318.15 K): 0.0201
- solubility (mole fraction) (in isopentanol, 278.15 K): 0.00609
- solubility (mole fraction) (in isopentanol, 283.15 K): 0.00711
- solubility (mole fraction) (in isopentanol, 288.15 K): 0.00815
- solubility (mole fraction) (in isopentanol, 293.15 K): 0.00953
- solubility (mole fraction) (in isopentanol, 298.15 K): 0.011
- solubility (mole fraction) (in isopentanol, 303.15 K): 0.0126
- solubility (mole fraction) (in isopentanol, 308.15 K): 0.0142
- solubility (mole fraction) (in isopentanol, 313.15 K): 0.0166
- solubility (mole fraction) (in isopentanol, 318.15 K): 0.0188
- solubility (mole fraction) (in isopropanol, 278.15 K): 0.0117
- solubility (mole fraction) (in isopropanol, 283.15 K): 0.0132
- solubility (mole fraction) (in isopropanol, 288.15 K): 0.0147
- solubility (mole fraction) (in isopropanol, 293.15 K): 0.0163
- solubility (mole fraction) (in isopropanol, 298.15 K): 0.0183
- solubility (mole fraction) (in isopropanol, 303.15 K): 0.0204
- solubility (mole fraction) (in isopropanol, 308.15 K): 0.0225
- solubility (mole fraction) (in isopropanol, 313.15 K): 0.0249
- solubility (mole fraction) (in isopropanol, 318.15 K): 0.0278
- solubility (mole fraction) (in methanol, 278.15 K): 0.0157
- solubility (mole fraction) (in methanol, 283.15 K): 0.0178
- solubility (mole fraction) (in methanol, 288.15 K): 0.0201
- solubility (mole fraction) (in methanol, 293.15 K): 0.0229
- solubility (mole fraction) (in methanol, 298.15 K): 0.0259
- solubility (mole fraction) (in methanol, 303.15 K): 0.0289
- solubility (mole fraction) (in methanol, 308.15 K): 0.0327
- solubility (mole fraction) (in methanol, 313.15 K): 0.0364
- solubility (mole fraction) (in methanol, 318.15 K): 0.0411
- solubility (mole fraction) (in methyl acetate, 278.15 K): 0.00456
- solubility (mole fraction) (in methyl acetate, 283.15 K): 0.00506
- solubility (mole fraction) (in methyl acetate, 288.15 K): 0.00573
- solubility (mole fraction) (in methyl acetate, 293.15 K): 0.00647
- solubility (mole fraction) (in methyl acetate, 298.15 K): 0.00718
- solubility (mole fraction) (in methyl acetate, 303.15 K): 0.00813
- solubility (mole fraction) (in methyl acetate, 308.15 K): 0.00898
- solubility (mole fraction) (in methyl acetate, 313.15 K): 0.00997
- solubility (mole fraction) (in methyl acetate, 318.15 K): 0.0112
- solubility (mole fraction) (in n-butanol, 278.15 K): 0.0106
- solubility (mole fraction) (in n-butanol, 283.15 K): 0.0117
- solubility (mole fraction) (in n-butanol, 288.15 K): 0.013
- solubility (mole fraction) (in n-butanol, 293.15 K): 0.0145
- solubility (mole fraction) (in n-butanol, 298.15 K): 0.0161
- solubility (mole fraction) (in n-butanol, 303.15 K): 0.0177
- solubility (mole fraction) (in n-butanol, 308.15 K): 0.0195
- solubility (mole fraction) (in n-butanol, 313.15 K): 0.0217
- solubility (mole fraction) (in n-butanol, 318.15 K): 0.0237
- solubility (mole fraction) (in n-pentanol, 278.15 K): 0.00802
- solubility (mole fraction) (in n-pentanol, 283.15 K): 0.00919
- solubility (mole fraction) (in n-pentanol, 288.15 K): 0.0103
- solubility (mole fraction) (in n-pentanol, 293.15 K): 0.0116
- solubility (mole fraction) (in n-pentanol, 298.15 K): 0.0131
- solubility (mole fraction) (in n-pentanol, 303.15 K): 0.0145
- solubility (mole fraction) (in n-pentanol, 308.15 K): 0.0162
- solubility (mole fraction) (in n-pentanol, 313.15 K): 0.018
- solubility (mole fraction) (in n-pentanol, 318.15 K): 0.0203
- solubility (mole fraction) (in n-propanol, 278.15 K): 0.011
- solubility (mole fraction) (in n-propanol, 283.15 K): 0.0123
- solubility (mole fraction) (in n-propanol, 288.15 K): 0.0139
- solubility (mole fraction) (in n-propanol, 293.15 K): 0.0155
- solubility (mole fraction) (in n-propanol, 298.15 K): 0.0173
- solubility (mole fraction) (in n-propanol, 303.15 K): 0.0195
- solubility (mole fraction) (in n-propanol, 308.15 K): 0.0216
- solubility (mole fraction) (in n-propanol, 313.15 K): 0.0241
- solubility (mole fraction) (in n-propanol, 318.15 K): 0.0269
- solubility (mole fraction) (in sec-butanol, 278.15 K): 0.00977
- solubility (mole fraction) (in sec-butanol, 283.15 K): 0.0111
- solubility (mole fraction) (in sec-butanol, 288.15 K): 0.0122
- solubility (mole fraction) (in sec-butanol, 293.15 K): 0.0134
- solubility (mole fraction) (in sec-butanol, 298.15 K): 0.0149
- solubility (mole fraction) (in sec-butanol, 303.15 K): 0.0167
- solubility (mole fraction) (in sec-butanol, 308.15 K): 0.0181
- solubility (mole fraction) (in sec-butanol, 313.15 K): 0.0198
- solubility (mole fraction) (in sec-butanol, 318.15 K): 0.022
